Publication PMC11775033, “Toxicokinetics of benzotriazole UV stabilizer UV-P in humans after single oral administration” (Archives of Toxicology, 2024)
“And” between values parts separate entries of the source, which are not always exact repeats. Equal values may be shown once. Read-outs that look alike come from different tables or passages of the source.

Columns and labels:
[1] = cited from earlier work
[2] = human, cited from earlier work
[3] = Renal excretion kinetics of UV-P in urine after single oral administration (human volunteer study); assay type: in vivo; conditions: for half-life: oral, 0.3 mg/kg body weight
Experimental: Three healthy volunteers (two men and one person) aged between 23 and 57 years were included in the study. […] The NOAEL was used as a starting point and a safety factor of 100 was applied. As a result, 0.3 mg/kg body weight was administered to each participant.
(§1) One blood and one urine sample were collected from each study participant prior to the oral administration of UV-P to determine potential background exposure. 14–27 mg of UV-P (see Table 1) were weighed onto a small piece of bread with butter, which was then consumed by the volunteers. From Subject 1, urine and blood samples were collected up to 72 h post-application. From the other two subjects, samples of urine and blood were collected up to 48 h post-application. The participants collected all urine voids in separate containers. Sampling times and volumes were recorded for each sample. The urine samples were aliquoted and stored at − 20 °C until analysis. 9 ml of blood were drawn from peripheral veins 1 h, 2 h, 3 h, 4 h, 5 h, 6 h, 10 h, 24 h, and 48 h after exposure and collected in EDTA-Monovettes®. From Subject 1, additional blood samples were drawn 8 h, 12 h, 32 h, and 72 h after exposure. Blood samples were stored at – 20 °C until analysis.
The preparation and processing of urine samples was based on a method published by Fischer and Göen ([2021]). However, a few modifications were made. The samples were thawed at room temperature, thoroughly mixed, and subsequently centrifuged at 1600 × g for 2 min. 200 µl of the supernatant were transferred into a 10-ml glass, conical-bottomed centrifuge tube. 800 µl of water, 10 µl of the internal-standard spiking solution (10 mg/l of d4-UV-P in acetonitrile), and 1 ml of sodium acetate buffer (0.4 M, pH 5.0) were added to the samples. After vortex-mixing, 10 µl of β-glucuronidase/arylsulfatase from H. pomatia were added and the samples were briefly vortex-mixed. Enzymatic hydrolysis was performed at 37 °C for 16 h. Afterwards, 2 ml of water, 700 µl of isopropanol, and 400 µl of chloroform were added. The samples were vortex-mixed for 30 s and centrifuged at 2300 × g for 15 min. The lower organic phases were pipetted into 1.8-ml glass vials and evaporated to dryness, followed by the addition of 40 µl of toluene and 40 µl of BSA/TMCS. The samples were vortex-mixed and derivatized at room temperature for 10 min. Afterwards, 20 µl of 5% (v/v) TSIM were added. The samples were vortex-mixed and transferred into the micro-inserts of 1.8-ml glass vials. Finally, the samples were heated to 40 °C for 1 h and analyzed by GC–MS/MS.
A nine-point calibration curve in the range of 10–5000 µg/l was applied for the analysis of the in vivo study samples. For calibration, two analyte spiking solutions containing 50 mg/l and 2 mg/l of UV-P were prepared in acetonitrile.
The urinary creatinine content of the study samples was determined photometrically by the Jaffé’s method (Larsen [1972]). To quantify the unconjugated form of UV-P, the urine samples of one study participant were additionally processed without the addition of β-glucuronidase/arylsulfatase from H. pomatia and incubation at 37 °C.
Renal excretion rates (RE, in µg/h) of UV-P at a certain point in time were calculated by the following equation: RE=ci×vi/ti-ti-1 where ci (in µg/l) is the concentration of UV-P in the urine sample i, vi (in l) is the volume of the respective urine sample, ti (in h) is the elapsed time value of sample collection, and ti–1 (in h) is the elapsed time value of the previous sample collection.

[4] = test system: human serum albumin; set-up: method as in Zhuang et al. [2016]; conditions: ref Zhuang et al. [2016]; cited from earlier work
[5] = set-up: method as in ref Fent et al. [2014]; Zhuang et al. [2017]; Sakuragi et al. [2021]; conditions: in vivo studies; ref Fent et al. [2014]; Zhuang et al. [2017]; Sakuragi et al. [2021]; cited from earlier work
[6] = Kinetics of UV-P in blood after single oral administration (human volunteer study); assay type: in vivo; conditions: for half-life: po, 0.3 mg/kg; for Tmax: oral, post-exposure, read-out: time of maximum blood levels
Experimental: Three healthy volunteers (two men and one person) aged between 23 and 57 years were included in the study. The administered dose of UV-P was calculated with respect to an adequate distance from the no-observed-adverse-effect level (NOAEL) determined in toxicological studies in rats (30 mg/kg body weight per day) (OECD [2017]). The NOAEL was used as a starting point and a safety factor of 100 was applied. As a result, 0.3 mg/kg body weight was administered to each participant.
as §1
The preparation and processing of the blood samples was based on a previously published method (Fischer and Göen [2023]). The samples were stored at – 20 °C until analysis. The samples were thawed at room temperature and mixed on a roller mixer. 1 ml of each sample was pipetted into a separate 6-ml glass vial. 20 µl of the d4-UV-P spiking solution [1000 µg/l of d4-UV-P in a mixture of 0.9% NaCl solution and acetonitrile (v/v, 9:1)] was added. 1 ml of acetonitrile was added to the samples, which were then vortex-mixed for 1 min and centrifuged at 4000 × g for 15 min at room temperature. The supernatants were transferred to clean 6-ml glass vials. 0.5 ml of sodium acetate buffer (0.4 M, pH 5.0) and 10 µl of β-glucuronidase/arylsulfatase from H. pomatia were added. After brief vortex-mixing, the samples were incubated at 37 °C for 16 h. After incubation, the samples were transferred to conical-bottomed centrifuge tubes and diluted with 2.5 ml of water. 1 ml of acetonitrile and 700 µl of chloroform were added and the samples were vortex-mixed for 30 s and centrifuged at 2500 × g for 15 min. The lower organic phases were pipetted into separate 1.8-ml glass vials and evaporated to dryness, followed by the addition of 40 µl of toluene and 40 µl of BSA/TMCS. The samples were vortex-mixed and derivatized at room temperature for 10 min. Afterwards, 20 µl of 5% (v/v) TSIM were added. The samples were vortex-mixed and transferred into the micro-inserts of 1.8-ml glass vials. Finally, the samples were heated to 40 °C for 1 h and analyzed by GC–MS/MS.
A seven-point calibration curve in the range of 0.5–150 µg/l was applied. Calibration standards were prepared by spiking human blood with various volumes of the UV-P spiking solutions containing 1000 µg/l or 100 µg/l of UV-P in a mixture of 0.9% NaCl solution and acetonitrile (v/v, 9:1). One sample each of Qlow (low-concentration quality-control material; 1 µg/l) and Qhigh (high-concentration quality-control material; 30 µg/l) was processed analogously to the samples in each analytical run. A reagent-blank sample, containing water instead of blood, was included in each analytical run as well. Any blank values were subtracted from the analytical results. The reliability criteria of the method are given in the Supplementary Information. […]

[7] = test system: rats; set-up: method as in OECD [2017]; conditions: ref OECD [2017]; cited from earlier work
[8] = set-up: method as in ref Arisu et al. [1992]; Björkner and Niklasson [1997]; Niklasson and Björkner [1989]; conditions: ref Arisu et al. [1992]; Björkner and Niklasson [1997]; Niklasson and Björkner [1989]; cited from earlier work
[9] = test system: aryl hydrocarbon receptor; set-up: method as in ref Fent et al. [2014]; Kubota et al. [2022]; Liang et al. [2023]; Nagayoshi et al. [2015]; conditions: ref Fent et al. [2014]; Kubota et al. [2022]; Liang et al. [2023]; Nagayoshi et al. [2015]; cited from earlier work

Question: Which results are given for `CC(C)(C)c1cc(-n2nc3ccc(Cl)cc3n2)c(O)c(C(C)(C)C)c1` [UV-327]?
Answer: sum of renally eliminated parent compound and metabolites ([1]; in vivo): 0.03%; time of maximum concentrations in blood (average) ([2]; in vivo, po): 6 h

Question: With `CCC(C)(C)c1cc(-n2nc3ccccc3n2)c(O)c(C(C)(C)CC)c1` [UV-328, 2-(2H-benzotriazol-2-yl)-4,6-di-tert-pentylphenol] as the molecule, how does the “share of ingested amount excreted via urine as parent compound” value ([1]; accumulated until 72 h post-exposure, ref Denghel et al. [2021], Fischer et al. [2023]) read?
Answer: 0.001%

Question: What about the “share of conjugation of renally eliminated compound” value ([1]; human urine, ref Denghel et al. [2021], Fischer et al. [2023]) of the same molecule?
Answer: 16%

Question: And the “sum of renally eliminated parent compound and metabolites” value ([1]; share of ingested amount, ref Denghel et al. [2021], Fischer et al. [2023])?
Answer: 0.12%

Question: And the “time of maximum concentrations in blood (average)” value ([2]; after oral administration, ref Fischer et al. [2023], Denghel et al. [2021])?
Answer: 8 h

Question: For `Cc1ccc(O)c(-n2nc3ccccc3n2)c1` [UV-P, 2-(2H-Benzotriazol-2-yl)-p-cresol], which “orally administered dose recovered in urine within 72 h” value ([3]; Subject 1 only, 72 h) is on record?
Answer: 44.9%

Question: And the “time at which cumulative amount excreted via urine reached a plateau” value ([3]; after exposure, Subject 1 (Figure SI-3))?
Answer: about 24 h

Question: What about the half-life ([3]; both sexes, human, urine, human urine, first phase until 7 h post-administration, n = 3, mean ± SD (range), read-out: t1/2—Phase 1 (renal excretion) (converted)) of the same molecule?
Answer: 0.7 ± 0.2 h

Question: And the half-life ([3]; both sexes, human, urine, human urine, second elimination phase, n = 3, mean ± SD (range), read-out: t1/2—Phase 2 (renal excretion) (converted))?
Answer: 6.6 ± 1.1 h

Question: And the Tmax ([3]; both sexes, human, urine, po, 0.3 mg/kg, human urine, single oral 0.3 mg/kg, n = 3, mean ± SD (range), read-out: tmax (timepoint of maximum renal excretion rate))?
Answer: 3.5 ± 1.1 h

Question: And the “FUE after 6 h (urinary excretion factor, % of dose)” value ([3]; human urine, 6 h, n = 3, mean ± SD (range))?
Answer: 26.7–33.2%

Question: And the “FUE after 12 h (urinary excretion factor, % of dose)” value ([3]; human urine, 12 h, n = 3, mean ± SD (range))?
Answer: 30.4–40.2%

Question: What about the “FUE after 24 h (urinary excretion factor, % of dose)” value ([3]; human urine, 24 h, n = 3, mean ± SD (range)) of the same molecule?
Answer: 31.7–43.3%

Question: And the “FUE after 48 h (urinary excretion factor, % of dose)” value ([3]; human urine, 48 h, n = 3, mean ± SD (range))?
Answer: 37.2 ± 5.4% and 32.0–44.7% and 32–45% and 37%

Question: And the “REmax (maximum renal excretion rate)” value ([3]; human urine, single oral 0.3 mg/kg body weight, with enzymatic hydrolysis, n = 3, mean ± SD (range), 0.3 mg/kg)?
Answer: 2896 ± 884 µg/h and 2896 ± 885 µg/h

Question: What about the “tmax (timepoint of maximum renal excretion rate)” value ([3]; human urine, single oral 0.3 mg/kg, n = 3, mean ± SD (range), 0.3 mg/kg) of the same molecule?
Answer: 2.6 to 5.0 h and 3 to 5 h

Question: And the “binding to human serum albumin” value [4]?
Answer: bind

Question: And the “endocrine effects in vivo” value [5]?
Answer: no indication of endocrine effects

Question: And the half-life ([6]; both sexes, human, whole blood, human blood, single oral 0.3 mg/kg, first phase up to 6 h, n = 3, mean ± SD (range), read-out: t1/2—Phase 1 (blood) (converted))?
Answer: 1.3 ± 0.1 h

Question: And the half-life ([6]; both sexes, human, whole blood, human blood, single oral 0.3 mg/kg, second phase, n = 3, mean ± SD (range), read-out: t1/2—Phase 2 (blood) (converted))?
Answer: 7.7 ± 1.1 h

Question: What about the concentration at 6 h ([6]; both sexes, human, whole blood, 6 h post-exposure, single oral 0.3 mg/kg, n = 3, read-out: mean blood level of UV-P) of the same molecule?
Answer: 44 ± 30 ng/mL

Question: And the concentration at 24 h ([6]; both sexes, human, whole blood, 24 h post-exposure, single oral 0.3 mg/kg, n = 3, read-out: mean blood level of UV-P)?
Answer: 2.5 ± 1.3 ng/mL

Question: What about the concentration at 48 h ([6]; both sexes, human, whole blood, 48 h post-exposure, single oral 0.3 mg/kg, n = 3, read-out: mean blood level of UV-P) of the same molecule?
Answer: 0.7 ± 0.7 ng/mL

Question: What about the Cmax ([6]; both sexes, whole blood, human blood, single oral 0.3 mg/kg body weight, with enzymatic hydrolysis, n = 3, mean ± SD (range), read-out: cmax (maximum level of UV-P in blood)) of the same molecule?
Answer: 184 ± 36 ng/mL

Question: What about the concentration at 72 h ([6]; human, whole blood, 0.3 mg/kg body weight, 72 h after oral administration, Subject 1 only, read-out: blood level of UV-P) of the same molecule?
Answer: 0.45 ng/mL

Question: What about the Tmax ([6]; human, whole blood, 0.3 mg/kg body weight, third subject (Subject 1)) of the same molecule?
Answer: 4 h

Question: And the Tmax ([6]; human, whole blood, 0.3 mg/kg body weight, two of the subjects (Subjects 2 and 3))?
Answer: 1 to 2 h

Question: What about the “slope of linear fit, blood levels without vs with hydrolysis (unconjugated share)” value ([6]; subject 1) of the same molecule?
Answer: 0.133

Question: What about the “slope of linear fit, blood levels without vs with hydrolysis (unconjugated share)” value ([6]; subject 2) of the same molecule?
Answer: 0.196

Question: And the “slope of linear fit, blood levels without vs with hydrolysis (unconjugated share)” value ([6]; subject 3)?
Answer: 0.135

Question: What about the “no-observed-adverse-effect level (NOAEL)” value [7] of the same molecule?
Answer: 30 mg/kg body weight per day

Question: And the allergic contact dermatitis [8]?
Answer: cause allergic contact dermatitis

Question: What about the “activation of the aryl hydrocarbon receptor” value [9] of the same molecule?
Answer: activates
